Measurements taken from PubChem BioAssay AID1259411 (Chemical Carcinogenesis Research Information System (CCRIS), 2018).
The source made the active and inactive calls. No rule for the calls is given here.

System: rodent carcinogenicity bioassays, tumor incidence
Experiment: CCRIS carcinogenicity studies
In short: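 Archive of carcinogenicity, mutagenicity, tumor promotion and tumor inhibition results drawn from journals, NCI reports and other sources, expert-reviewed; covers 1985-2011 and is no longer updated.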

O=[N+]([O-])c1ccc2c3c(cccc13)-c1ccccc1-2
carcinogen call (Species: MOUSE, Strain/Sex: B6C3F1/MALE, Route: INTRAPERITONEAL, Dose: 0, 400 NMOL IN 35 µL DMSO ON DAYS 1 (1/7 TOTAL DOSE), 8 (2/7 TOTAL DOSE), AND 15 (4/7 TOTAL DOSE) AFTER BIRTH (STUDY DUR): inactive; negative | carcinogen call (Species: MOUSE, Strain/Sex: ICR/FEMALE, Route: INTRAPERITONEAL, Dose: 0, 63 UG TOTAL DOSE (9 UG/5 µL, 18 UG/10 µL, 36 UG/20 µL DMSO ON DAYS 1, 8 AND 15), 315 UG TOTAL DOSE (45 UG/5 µL, 90 UG, Dose: 0, 63 UG TOTAL DOSE (9 UG/5 µL, 18 UG/10 µL, 36 UG/20 µL DMSO ON DAYS 1, 8 AND 15), 315 UG TOTAL DOSE (45 UG/5 µL, 90 UG, Tumor Site: Type of Lesion: LUNG: ADENOMA): active; positive | carcinogen call (Species: MOUSE, Strain/Sex: ICR/MALE, Route: INTRAPERITONEAL, Dose: 0, 63 UG TOTAL DOSE (9 UG/5 µL, 18 UG/10 µL, 36 UG/20 µL DMSO ON DAYS 1, 8 AND 15), 315 UG TOTAL DOSE (45 UG/5 µL, 90 UG, Dose: 0, 63 UG TOTAL DOSE (9 UG/5 µL, 18 UG/10 µL, 36 UG/20 µL DMSO ON DAYS 1, 8 AND 15), 315 UG TOTAL DOSE (45 UG/5 µL, 90 UG, Tumor Site: Type of Lesion: LUNG: ADENOMA): active; positive | carcinogen call (Species: RAT, Strain/Sex: F344/DUCRJ FISCHER/MALE, Route: SUBCUTANEOUS, Dose: 2 MG TWICE WEEKLY FOR A TOTAL OF 15 INJECTIONS (STUDY DURATION: 52 WK), Tumor Site: Type of Lesion: INTEGUMENTARY SYSTEM: FIBROUS HISTIOCYTOMAS): active; positive | carcinogen call (Species: RAT, Strain/Sex: F344/MALE, Route: LUNG IMPLANT, Dose: 0, 1000 UG SUSPENDED IN BEESWAX/TRICAPRYLIN INTO LOWER LEFT LUNG ONCE (STUDY DURATION: 100 WK)): inactive; negative | carcinogen call (Species: RAT, Strain/Sex: F344/MALE, Route: PULMONARY IMPLANT, Dose: 0, 1000 UG IN 50 µL BEESWAX/TRICAPRYLIN IMPLANTED FOR UP TO 100 WK (STUDY DURATION: 100 WK)): inactive; negative

CC(=O)O
carcinogen call (Species: MOUSE, Strain/Sex: SWISS/FEMALE, Route: ORAL, Dose: 0, 5 PPM IN DRINKING WATER FOR DURATION OF STUDY (STUDY DURATION: LIFE SPAN)): inactive; negative | carcinogen call (Species: MOUSE, Strain/Sex: SWISS/MALE, Route: ORAL, Dose: 0, 5 PPM IN DRINKING WATER FOR DURATION OF STUDY (STUDY DURATION: LIFE SPAN)): inactive; negative

CCCN(CCC)c1c([N+](=O)[O-])cc(C(F)(F)F)cc1[N+](=O)[O-]
carcinogen call (Species: MOUSE, Strain/Sex: B6C3F1/FEMALE, Route: ORAL, Dose: 0, 563, 2250, 4500 PPM IN DIET FOR 2 YR (STUDY DURATION: 2 YR), Dose: 0, 563, 2250, 4500 PPM IN DIET FOR 2 YR (STUDY DURATION: 2 YR)): inactive; negative | carcinogen call (Species: MOUSE, Strain/Sex: B6C3F1/FEMALE, Route: ORAL, Dose: 0, 2740, 5192 PPM IN DIET, TWA, Dose: 0, 2740, 5192 PPM IN DIET, TWA, Tumor Site: Type of Lesion: LUNG: ALVEOLAR/BRONCHIOLAR ADENOMA OR CARCINOMA, LIVER: HEPATOCELLULAR ADENOMA OR CARCINOMA): active; positive | carcinogen call (Species: MOUSE, Strain/Sex: B6C3F1/MALE, Route: ORAL, Dose: 0, 563, 2250, 4500 PPM IN DIET FOR 2 YR (STUDY DURATION: 2 YR), Dose: 0, 563, 2250, 4500 PPM IN DIET FOR 2 YR (STUDY DURATION: 2 YR)): inactive; negative | carcinogen call (Species: MOUSE, Strain/Sex: B6C3F1/MALE, Route: ORAL, Dose: 0, 2000, 3744 PPM IN DIET, TWA, Dose: 0, 2000, 3744 PPM IN DIET, TWA): inactive; negative | carcinogen call (Species: MOUSE, Strain/Sex: NMRI/FEMALE, Route: ORAL, Dose: 0, 50, 200, 800 MG/KG IN DIET FOR 104 WK (STUDY DURATION: 104 WK), Dose: 0, 50, 200, 800 MG/KG IN DIET FOR 104 WK (STUDY DURATION: 104 WK)): inactive; negative | carcinogen call (Species: MOUSE, Strain/Sex: NMRI/MALE, Route: ORAL, Dose: 0, 50, 200, 800 MG/KG IN DIET FOR 104 WK (STUDY DURATION: 104 WK), Dose: 0, 50, 200, 800 MG/KG IN DIET FOR 104 WK (STUDY DURATION: 104 WK)): inactive; negative | carcinogen call (Species: RAT, Strain/Sex: OSBORNE-MENDEL/FEMALE, Route: ORAL, Dose: 0, 4125, 7917 PPM IN DIET, TWA, Dose: 0, 4125, 7917 PPM IN DIET, TWA): inactive; negative | carcinogen call (Species: RAT, Strain/Sex: OSBORNE-MENDEL/MALE, Route: ORAL, Dose: 0, 4125, 8000 PPM IN DIET, TWA, Dose: 0, 4125, 8000 PPM IN DIET, TWA): inactive; negative | carcinogen call (Species: RAT, Strain/Sex: WISTAR/FEMALE, Route: ORAL, Dose: 0, 200, 800, 3200 MG/KG IN DIET FOR 122 WK (STUDY DURATION: 122 WK), Dose: 0, 200, 800, 3200 MG/KG IN DIET FOR 122 WK (STUDY DURATION: 122 WK)): inactive; negative | carcinogen call (Species: RAT, Strain/Sex: WISTAR/MALE, Route: ORAL, Dose: 0, 200, 800, 3200 MG/KG IN DIET FOR 122 WK (STUDY DURATION: WK), Dose: 0, 200, 800, 3200 MG/KG IN DIET FOR 122 WK (STUDY DURATION: WK)): inactive; negative

CCNC(=O)N(C=O)CCN(C)C
carcinogen call (Species: RAT, Strain/Sex: F344/FEMALE, Route: INTRAGASTRIC, Dose: 0, 25 MG/ML CORN OIL/ETHYL ACETATE (2:1) SOLUTION ADMINISTERED AS 0.2 ML 2/WK FOR 37 WK (STUDY DURATION: 102 WK), Tumor Site: Type of Lesion: NASAL CAVITY: ADENOMA): active; positive | carcinogen call (Species: RAT, Strain/Sex: F344/MALE, Route: INTRAGASTRIC, Dose: 0, 25 MG/ML CORN OIL/ETHYL ACETATE (2:1) SOLUTION ADMINISTERED AS 0.2 ML 2/WK FOR 37 WK (STUDY DURATION: 102 WK)): inactive; negative

c1ccc(N=Nc2ccccc2)cc1
carcinogen call (Species: MOUSE, Strain/Sex: B6C3F1/FEMALE, Route: ORAL, Dose: 0, 208, 545 PPM IN DIET, TWA, Dose: 0, 208, 545 PPM IN DIET, TWA): inactive; negative | carcinogen call (Species: MOUSE, Strain/Sex: B6C3F1/MALE, Route: ORAL, Dose: 0, 200, 400 PPM IN DIET, Dose: 0, 200, 400 PPM IN DIET): inactive; negative | carcinogen call (Species: RAT, Strain/Sex: F344/FEMALE, Route: ORAL, Dose: 0, 200, 400 PPM IN DIET FOR 106 WK (STUDY DURATION: 106 WK), Dose: 0, 200, 400 PPM IN DIET FOR 106 WK (STUDY DURATION: 106 WK), Tumor Site: Type of Lesion: SPLEEN OR PERITONEUM: SARCOMA): active; positive | carcinogen call (Species: RAT, Strain/Sex: F344/FEMALE, Route: ORAL, Dose: 0, 200, 400 PPM IN DIET, Dose: 0, 200, 400 PPM IN DIET, Tumor Site: Type of Lesion: SPLEEN: FIBROSARCOMA, OSTEOSARCOMA, PERITONEAL CAVITY: SARCOMA): active; positive | carcinogen call (Species: RAT, Strain/Sex: F344/MALE, Route: ORAL, Dose: 0, 200, 400 PPM IN DIET FOR 106 WK (STUDY DURATION: 106 WK), Dose: 0, 200, 400 PPM IN DIET FOR 106 WK (STUDY DURATION: 106 WK), Tumor Site: Type of Lesion: SPLEEN OR PERITONEUM: SARCOMA): active; positive | carcinogen call (Species: RAT, Strain/Sex: F344/MALE, Route: ORAL, Dose: 0, 200, 400 PPM IN DIET, Dose: 0, 200, 400 PPM IN DIET, Tumor Site: Type of Lesion: SPLEEN: FIBROSARCOMA, PERITONEAL CAVITY: SARCOMA): active; positive

O=C[C@H](O)[C@@H](O)[C@H](O)CO
carcinogen call (Species: RAT, Strain/Sex: FISCHER 344/MALE, FEMALE (50/GROUP), Route: DIET, Dose: 0, 2.5, 5% IN DIET FOR 104 WKS (STUDY DURATION: 104 WKS), Dose: 0, 2.5, 5% IN DIET FOR 104 WKS (STUDY DURATION: 104 WKS)): inactive; negative

C[C@]12CC[C@@H]3c4cc(O)c(O)cc4CC[C@H]3[C@@H]1CC[C@@H]2O
carcinogen call (Species: MOUSE, Strain/Sex: CD-1/FEMALE, Route: SUBCUTANEOUS, Dose: 0, 2 UG/D IN CORN OIL ON DAYS 1-5 OF LIFE (STUDY DURATION: 12-18 WK), Tumor Site: Type of Lesion: UTERUS: ADENOCARCINOMA): active; positive

CC1COCCN1N=O (stereo not given)
carcinogen call (Species: RAT, Strain/Sex: F344/FEMALE, Route: ORAL, Dose: 45 MG/L IN DRINKING WATER FOR 26 WK, Tumor Site: Type of Lesion: LIVER: HEPATOCELLULAR CARCINOMA, HEMANGIOENDOTHELIAL SARCOMA, ESOPHAGUS: PAPILLOMA, CARCINOMA): active; positive

CCC(=O)Oc1ccc2c(c1)CC[C@@H]1[C@@H]2CC[C@]2(C)[C@@H](OC(=O)CC)CC[C@@H]12
carcinogen call (Species: MOUSE, Route: SUBCUTANEOUS, Tumor Site: Type of Lesion: MAMMARY GLAND): active; positive
